Measurements as given in publication PMC5956543, “Antimicrobial and antioxidant activities of triterpenoid and phenolic derivatives from two Cameroonian Melastomataceae plants: Dissotis senegambiensis and Amphiblemma monticola” (BMC Complementary and Alternative Medicine, 2018).
≈ marks a conversion by molar mass, not a printed value. Like-named read-outs stand apart in the source and are kept apart here.

Columns and labels:
C. albicans ATCC10231 = assay: Broth microdilution antimicrobial assay (MIC/MMC); type: cell-based, Candida albicans; conditions: for MIC: 37 °C, 48 h; for MMC: no growth after sub-culturing
Method: (§1) The microorganisms used in this study include four bacterial (Staphylococcus aureus ATCC25923, methicillin sensitive S. aureus MSSA1, methicillin resistant S. aureus MRSA3 and methicillin resistant S. aureus MRSA4) and three yeast strains (Candida albicans ATCC10231, Candida tropicalis PK233 and Cryptococcus neoformans H99). These microorganisms were taken from our laboratory collection. The fungal and bacterial strains were grown at 37 °C and maintained on Sabouraud Dextrose Agar (SDA, Conda, Madrid, Spain) and nutrient agar (NA, Conda) slants respectively.
(§2) The inocula of bacteria and yeasts were prepared from overnight cultures as previously described. Absorbance was read spectrophotometrically at 530 nm and 600 nm for yeasts and bacteria respectively. The final concentrations of microbial suspensions were 2.5 × 10^5 cells/mL for yeasts and 10^6 CFU/mL for bacteria.
(§3) The antimicrobial activity was evaluated by determining the minimum inhibitory concentrations (MICs). MICs of extracts and compounds were determined by broth micro dilution. Each test sample was dissolved in 10% v/v aqueous dimethylsulfoxide (DMSO) to give a stock solution. This was serially diluted two-fold in Mueller-Hinton Broth (MHB) for bacteria and Sabouraud Dextrose Broth (SDB) for fungi to obtain a concentration range of 4096 to 0.25 μg/mL. Then, 100 μL of each sample concentration was added to respective wells (96-well micro plate) containing 90 μL of SDB/ MHB and 10 μL of inoculum to give final concentration ranges of 2048 to 4 μg/mL (for extracts) and 256 to 0.125 μg/mL (for compounds). Dilutions of nystatin (Sigma-Aldrich, Steinheim, Germany) and ciprofloxacin (Sigma-Aldrich, Steinheim, Germany) were used as positive controls for yeasts and bacteria respectively. Broth with 10 μL of DMSO was used as negative control. The cultured micro plates were covered; then, the contents of each well were mixed thoroughly using a plate shaker (Flow Laboratory, Germany) and incubated at 37 °C for 24 h (bacteria) and 48 h (yeasts) under shaking. After the incubation period, MICs were assessed visually and were taken as the lowest sample concentration at which there was no growth or virtually no growth. The lowest concentration that yielded no growth after the sub-culturing was considered as the minimum microbicidal concentrations (MMCs). All the tests were performed in triplicate.

C. tropicalis PK233 = assay: Broth microdilution antimicrobial assay (MIC/MMC); type: cell-based, Candida tropicalis; conditions: for MIC: 37 °C; for MIC / MFC: 48 h
Method: as §1, §2, §3

C. neoformans H99 = assay: Broth microdilution antimicrobial assay (MIC/MMC); type: cell-based, Cryptococcus neoformans; conditions: for MIC: 37 °C; for MIC / MFC: 48 h
Method: as §1, §2, §3

S. aureus ATCC25923 = assay: Broth microdilution antimicrobial assay (MIC/MMC); type: cell-based, Staphylococcus aureus; conditions: for MIC / MBC: Staphylococcus aureus, 24 h; for MIC: 37 °C; for MBC: no growth after sub-culturing
Method: as §1, §2, §3

S. aureus MRSA3 = assay: Broth microdilution antimicrobial assay (MIC/MMC); type: cell-based, Staphylococcus aureus; conditions: for MMC/MIC / MBC / MIC: S. aureus MRSA3; for MBC / MIC: Staphylococcus aureus, 24 h; for MBC: no growth after sub-culturing; for MIC: 37 °C
Method: as §1, §2, §3

S. aureus MRSA4 = assay: Broth microdilution antimicrobial assay (MIC/MMC); type: cell-based, Staphylococcus aureus; conditions: for MMC/MIC / MBC / MIC: S. aureus MRSA4; for MBC / MIC: Staphylococcus aureus, 24 h; for MBC: no growth after sub-culturing; for MIC: 37 °C
Method: as §1, §2, §3

S. aureus MSSA1 = assay: Broth microdilution antimicrobial assay (MIC/MMC); type: cell-based, Staphylococcus aureus; conditions: for MIC / MBC: Staphylococcus aureus, 24 h; for MIC: 37 °C; for MBC: no growth after sub-culturing
Method: as §1, §2, §3

[1] = Ferric reducing antioxidant power (FRAP) assay; conditions: Perl's Prussian blue at 700 nm; Fig. 2; BHT positive control
Method: The FRAP was determined by the Fe^3+-Fe^2+ transformation in the presence of extracts and compounds as previously described. The Fe^2+ was monitored by measuring the formation of Perl’s Prussian blue at 700 nm. Butylated hydroxytoluene (BHT) was used as a positive control. All the tests were performed in triplicate.

[2] = DPPH free radical scavenging assay; conditions: Fig. 3; vitamin C standard
Method: The free radical scavenging activity of extracts and compounds was evaluated according to described methods. The EC50 (μg/ml), which is the amount of sample necessary to inhibit by 50% the absorbance of free radical DPPH was calculated. Vitamin C was used as a standard control. All the analyses were carried out in triplicate.

[3] = tested on: bacterial and fungal strains; assay: Broth microdilution MIC, range over all tested strains; type: cell-based
Method: as §1, §2, §3

S. aureus strains = assay: Broth microdilution MIC, range over the S. aureus strains; type: cell-based; conditions: Staphylococcus aureus; range over the four S. aureus strains
Method: as §1, §2
The antimicrobial activity was evaluated by determining the minimum inhibitory concentrations (MICs). MICs of extracts and compounds were determined by broth micro dilution. Each test sample was dissolved in 10% v/v aqueous dimethylsulfoxide (DMSO) to give a stock solution. […] After the incubation period, MICs were assessed visually and were taken as the lowest sample concentration at which there was no growth or virtually no growth. […]

[4] = Candida albicans, read-out: MIC
[5] = Candida tropicalis, read-out: MIC
[6] = Candida tropicalis, no growth after sub-culturing
[7] = Cryptococcus neoformans, read-out: MIC
[8] = Cryptococcus neoformans, no growth after sub-culturing
[9] = range over all bacterial and fungal strains, read-out: MIC

## C[C@@H]1[C@H](O)[C@@H](C)/C=C/C=C/CC/C=C/C=C/C=C/C=C/C(O[C@H]2O[C@H](C)[C@@H](O)[C@H](N)[C@@H]2O)CC2O[C@](O)(CC(O)C(O)CCC(O)CC(O)CC(O)CC(=O)O[C@H]1C)CC(O)C2C(=O)O (stereo partly drawn) [nystatin, reference compound]
C. albicans ATCC10231
  MMC/MIC: 1
  MIC: 2 µg/mL (≈ 2.16 µM)
  MMC: 2 µg/mL
C. tropicalis PK233
  MMC/MIC: 2
  MIC: 0.5 µg/mL (≈ 0.54 µM)
C. tropicalis PK233; no growth after sub-culturing
  MMC: 1 µg/mL
C. neoformans H99
  MMC/MIC: 1
  MIC: 1 µg/mL (≈ 1.08 µM)
C. neoformans H99; no growth after sub-culturing
  MMC: 1 µg/mL

## COC(=O)c1cc(O)c(O)c(O)c1-c1c(C(=O)OC)cc(O)c(O)c1O [Compound 8, dimethyl 4,4′,5,5′,6,6′-hexahydroxybiphenyl-2,2′-dicarboxylate]
S. aureus ATCC25923
  MMC/MIC: 2
  MIC: 32 µg/mL (≈ 87.4 µM)
  MBC: 64 µg/mL (≈ 175 µM)
S. aureus MRSA3
  MMC/MIC: 2
  MBC: 128 µg/mL (≈ 349 µM)
  MIC: 64 µg/mL (≈ 175 µM)
S. aureus MRSA4
  MMC/MIC: 2
  MBC: 256 µg/mL (≈ 699 µM)
  MIC: 128 µg/mL (≈ 349 µM)
S. aureus MSSA1
  MMC/MIC: 1
  MIC: 32 µg/mL (≈ 87.4 µM)
  MBC: 32 µg/mL (≈ 87.4 µM)
C. albicans ATCC10231; [4]
  MIC: 128 µg/mL (≈ 349 µM)
C. albicans ATCC10231
  MMC: > 256 µg/mL
C. tropicalis PK233
  MMC/MIC: 1
C. tropicalis PK233; [5]
  MIC: 16 µg/mL (≈ 43.7 µM)
C. tropicalis PK233; [6]
  MFC: 16 µg/mL (≈ 43.7 µM)
C. neoformans H99
  MMC/MIC: 1
C. neoformans H99; [7]
  MIC: 32 µg/mL (≈ 87.4 µM)
C. neoformans H99; [8]
  MFC: 32 µg/mL (≈ 87.4 µM)
[1]
  reducing power (FRAP, in words): highest reducing power
[2]
  DPPH radical-scavenging activity (in words): lowest EC50
[3]; [9]
  MIC: 8 to 128 µg/mL (≈ 21.8 to 349 µM)

## O=c1cc(-c2ccc(O)cc2)oc2c([C@@H]3O[C@H](CO)[C@@H](O)[C@H](O)[C@H]3O)c(O)cc(O)c12 [Compound 5, vitexin]
S. aureus ATCC25923
  MMC/MIC: 2
  MIC: 64 µg/mL (≈ 148 µM)
  MBC: 128 µg/mL (≈ 296 µM)
S. aureus MRSA3
  MMC/MIC: 2
  MBC: 128 µg/mL (≈ 296 µM)
  MIC: 64 µg/mL (≈ 148 µM)
S. aureus MRSA4
  MMC/MIC: 2
  MBC: 256 µg/mL (≈ 592 µM)
  MIC: 128 µg/mL (≈ 296 µM)
S. aureus MSSA1
  MMC/MIC: 2
  MIC: 64 µg/mL (≈ 148 µM)
  MBC: 128 µg/mL (≈ 296 µM)
C. albicans ATCC10231
  MMC/MIC: 2
  MMC: 256 µg/mL
C. albicans ATCC10231; [4]
  MIC: 128 µg/mL (≈ 296 µM)
C. tropicalis PK233
  MMC/MIC: 2
C. tropicalis PK233; [5]
  MIC: 64 µg/mL (≈ 148 µM)
C. tropicalis PK233; [6]
  MFC: 128 µg/mL (≈ 296 µM)
C. neoformans H99
  MMC/MIC: 1
C. neoformans H99; [7]
  MIC: 128 µg/mL (≈ 296 µM)
C. neoformans H99; [8]
  MFC: 128 µg/mL (≈ 296 µM)
[3]
  MIC: 64 to 128 µg/mL (≈ 148 to 296 µM)

## O=C(O)c1cn(C2CC2)c2cc(N3CCNCC3)c(F)cc2c1=O [Ciprofloxacin, reference compound]
S. aureus ATCC25923
  MMC/MIC: 1
  MIC: 1 µg/mL (≈ 3.02 µM)
  MBC: 1 µg/mL (≈ 3.02 µM)
S. aureus MRSA3
  MMC/MIC: 1
  MBC: 16 µg/mL (≈ 48.3 µM)
  MIC: 16 µg/mL (≈ 48.3 µM)
S. aureus MRSA4
  MMC/MIC: 1
  MBC: 32 µg/mL (≈ 96.6 µM)
  MIC: 32 µg/mL (≈ 96.6 µM)
S. aureus MSSA1
  MMC/MIC: 1
  MIC: 1 µg/mL (≈ 3.02 µM)
  MBC: 1 µg/mL (≈ 3.02 µM)

## COc1cc2c(=O)oc3c(OC)c(O)cc4c(=O)oc(c1O)c2c34 [Compound 7, 3,4′-di-O-methylellagic acid]
S. aureus ATCC25923
  MMC/MIC: 1
  MIC: 32 µg/mL (≈ 96.9 µM)
  MBC: 32 µg/mL (≈ 96.9 µM)
S. aureus MRSA3; MRSA3
  activity against methicillin-resistant S. aureus (in words): prominent activity
S. aureus MRSA3
  MMC/MIC: 2
  MBC: 32 µg/mL (≈ 96.9 µM)
  MIC: 16 µg/mL (≈ 48.4 µM)
S. aureus MRSA4; MRSA4
  activity against methicillin-resistant S. aureus (in words): prominent activity
S. aureus MRSA4
  MMC/MIC: 2
  MBC: 64 µg/mL (≈ 194 µM)
  MIC: 32 µg/mL (≈ 96.9 µM)
S. aureus MSSA1
  MMC/MIC: 1
  MIC: 16 µg/mL (≈ 48.4 µM)
  MBC: 16 µg/mL (≈ 48.4 µM)
C. albicans ATCC10231
  MMC/MIC: 2
  MMC: 64 µg/mL
C. albicans ATCC10231; [4]
  MIC: 32 µg/mL (≈ 96.9 µM)
C. tropicalis PK233
  MMC/MIC: 2
C. tropicalis PK233; [5]
  MIC: 32 µg/mL (≈ 96.9 µM)
C. tropicalis PK233; [6]
  MFC: 64 µg/mL (≈ 194 µM)
C. neoformans H99
  MMC/MIC: 1
C. neoformans H99; [7]
  MIC: 32 µg/mL (≈ 96.9 µM)
C. neoformans H99; [8]
  MFC: 32 µg/mL (≈ 96.9 µM)
[1]
  reducing power (FRAP, in words): lowest reducing power
[2]
  DPPH radical-scavenging activity (in words): highest EC50
S. aureus strains
  MIC: 16 to 32 µg/mL (≈ 48.4 to 96.9 µM)
[3]; [9]
  MIC: 16 to 32 µg/mL (≈ 48.4 to 96.9 µM)
